{"source": "patent US20080058299A1", "about": "“Method of treating or preventing bone deterioration or osteoporosis” (priority 2005, published 2008)", "key": {"[1]": {"test_system": "hypogonadal men", "test": "Markers of bone metabolism in hypogonadal men", "assay_type": "in vivo", "protocol": "(§1) Ten men with severe and untreated hypogonadism due to known disease were entered into the study.\n(§2) All subjects were assessed by dual energy X-ray absorptiometry (DXA) and magnetic resonance microimaging (μMRI) at 0, 6, 12 and 24 months. The hypogonadal subjects were also assessed for markers of bone metabolism at 0, 3, and 6 months.\nAfter an overnight fast, blood and a timed 2-hour urine sample were collected. Serum and urine samples were frozen at −70° C. The markers and methods of assay were as follows: bone-specific alkaline phosphatase (BAP), immunoradiometric assay (Tandem-R Ostase, Beckman-Coulter, Inc., Fullerton, Calif.); osteoprotegerin, enzyme-linked immunosorbent assay (American Laboratory Products Company, Windham, N.H.); intact N-terminal propeptide of type I procollagen (PINP), radioimmunoassay, (Orion Diagnostica UniQ, IDS, Inc. Fountain Hills, Ariz.); cross-linked N-telopeptides of type I collagen (NTx), enzyme-linked immunosorbent assay (Osteomark, Ostex International, Inc. Seattle, Wash.). For each assay, all samples were measured in a single assay run."}, "[2]": {"test_system": "hypogonadal men", "test": "Bone mineral density by DXA in hypogonadal men", "assay_type": "in vivo", "protocol": "as §1, §2\nBone mineral density (BMD) of the anterior-posterior lumbar spine (L1-L4) and of the right hip was determined by DXA using Hologic densitometers (Hologic, Inc., Bedford, Mass.), a QDR-4500A for the first year of the study and a Dephi A for the second. […] Scans from the same subject were evaluated by the “compare” feature of the DXA instrument. The coefficients of variation for long-term instrument stability, as assessed by daily measurements of a phantom, were <0.9%.\nFor all parameters, changes from 0 to 24 months were tested by multivariate analysis of variance, one factor repeated measures design. If the change from 0 to 24 months was significant, pair-wise comparisons of each treatment time (6, 12, and 24 months) against pretreatment were determined with Dunnett's test. Missing values were imputed by the method of last observation carried forward. A type I error rate of 0.05 was used for determining statistical significance. SAS statistical software, version 9.1 (SAS Institute, Inc., Cary, N.C.) was used for all analysis."}, "[3]": {"test_system": "hypogonadal men", "test": "Magnetic resonance microimaging (μMRI) of trabecular architecture of the right distal tibia", "assay_type": "in vivo", "text": "(§3) Ten men with severe and untreated hypogonadism due to known disease were entered into the study. […] All ten subjects had secondary hypogonadism. Eight subjects had pituitary adenomas, one had pinealoma, and one had Kallmann's syndrome. Hypogonadism developed in adulthood in nine. […] The estimated duration of hypogonadism was 2-30 years (median, 5 years). […] Of the two who had been treated, one had not been treated for four years and the other for 20 years before entering the study. The median age at entry was 51 years (range 31-78).\nas §2\nMagnetic resonance microimaging (μMRI) of the right distal tibia was performed using a Signa 1.5 Tesla MR scanner (GE Medical Systems, Milwaukee, Wis.) and a custom-designed receive-only radiofrequency phased array surface coil. The coil was placed on the anterior right tibia, the edge 1 cm proximal to the midpoint of the medial malleolus, and the right foot was immobilized. Twenty-eight images were obtained to map trabecular architecture. Song H K, et al., Magn. Reson. Med., 41:947-53 (1999). […] The data were processed using a custom-designed program written in IDL (Interactive Data Language, Boulder, Colo.). Wehrli F W, et al., J. Bone Miner. […] The data were motion-corrected, filtered and Fourier transformed. To ensure that the same volume was analyzed at each time point for each subject, the images corresponding to the 0, 6, 12, and 24 month examinations of each subject were matched for volume of interest by identifying similar trabecular features. After the volume of interest was selected manually on each of the matched slices by tracing a line approximately 1 mm from the endocortical boundary on the anterior half of the distal metaphysis, bone volume fraction maps were computed. Subvoxel processing yielded a voxel size of 69×69×103 μm^3. Hwang S N, et al., Magn. Reson. Med., 47 (2002). A cylindrical core measuring 6.85 mm in diameter was obtained from the center of the volume of interest. (FIG. 3).\nDigital topological analysis of the trabecular network was performed on the entire volume of interest. Gomberg BR, et al., IEEE Trans. […] The topological class of each image voxel was determined, yielding the density of surface voxels, curve voxels, and voxels part of mutual junctions. The topological analysis began with binarization of the three-dimensional images, followed by skeletonization, which converted the plate-like elements of the trabecular network to surfaces and the rodlike elements to curves. Each voxel was then classified as belonging to a surface, curve, or junction between these voxel types. […] One composite parameter was the surface-to-curve ration, the ratio of all surface voxels to all curve voxels. The higher the ratio, the more intact in the trabecular network, and vice versa. The second composite parameter was the topological erosion index, a ratio of parameters that are expected to increase upon trabecular deterioration (Curve edge and curve interior voxels, surface and profile edges, and curve-curve junction voxels) to those expected to decrease (surface interior voxels and surface-surface junctions). The lower the topological erosion index, the smaller the degree to which the trabecular network has deteriorated. Trabecular thickness was determined by an independent program based on the concept of fuzzy distance transform. Saha P K, et al., IEEE Trans.\nFor all parameters, changes from 0 to 24 months were tested by multivariate analysis of variance, one factor repeated measures design. If the change from 0 to 24 months was significant, pair-wise comparisons of each treatment time (6, 12, and 24 months) against pretreatment were determined with Dunnett's test. Missing values were imputed by the method of last observation carried forward. […]"}, "[4]": {"test": "Serum testosterone and estradiol concentrations in hypogonadal men treated with AndroGel for 24 months", "assay_type": "in vivo", "text": "as §3\nEstradiol was measured by ultrasensitive immunoradiometric assay (DSL, Webster, Tex.). Intra- and interassay coefficients of variation were <10%."}, "[5]": {"conditions": "cited from earlier work"}, "[6]": {"test_system": "postmenopausal women", "conditions": "32 postmenopausal women, average 19 months, versus 19 placebo-treated women; cited from earlier work"}, "[7]": {"conditions": "distal tibia, 24 Months of treatment"}}, "note": "Several values for one entry are separate records, joined by “and”; a condition that tells them apart may be missing. Equal entries are not always repeated. Where two headings read alike, the source gives them in different places."}
{"smiles": "C[C@]12CC[C@H]3[C@@H](CCC4=CC(=O)CC[C@@]43C)[C@@H]1CC[C@@H]2O", "note": "[Testosterone]", "values": [{"measurement": "bone-specific alkaline phosphatase (BAP), in words", "setting": "[1]; 0 to 6 months", "result": "did not change"}, {"measurement": "serum intact N-terminal propeptide of type I procollagen (PINP)", "setting": "[1]; 3 months of treatment", "result": "71.3 ± 32.1", "unit": "µg/L"}, {"measurement": "Serum osteoprotegerin", "setting": "[1]; 6 months of treatment", "result": "4.29 ± 0.82", "unit": "pmol/L"}, {"measurement": "Urine NTx, in words", "setting": "[1]; baseline to 6 months", "result": "did not change"}, {"measurement": "Femoral Neck BMD, % Change 0-24 months", "setting": "[2]", "result": "2.1 ± 5.1", "unit": "%"}, {"measurement": "Femoral Neck BMD, Change 0-24 months", "setting": "[2]", "result": "0.016 ± 0.038", "unit": "g/cm^2"}, {"measurement": "Intertrochanteric BMD, % Change 0-24 months", "setting": "[2]", "result": "4.4 ± 3.7", "unit": "%"}, {"measurement": "Intertrochanteric BMD, Change 0-24 months", "setting": "[2]", "result": "0.049 ± 0.037", "unit": "g/cm^2"}, {"measurement": "Spine BMD, % Change 0-24 months", "setting": "[2]", "result": "7.4 ± 5.1", "unit": "%"}, {"measurement": "Spine BMD, Change 0-24 months", "setting": "[2]", "result": "0.069 ± 0.053", "unit": "g/cm^2"}, {"measurement": "Total Hip BMD, % Change 0-24 months", "setting": "[2]", "result": "3.8 ± 3.4", "unit": "%"}, {"measurement": "Total Hip BMD, Change 0-24 months", "setting": "[2]", "result": "0.034 ± 0.029", "unit": "g/cm^2"}, {"measurement": "Trochanter BMD, % Change 0-24 months", "setting": "[2]", "result": "4.0 ± 4.7", "unit": "%"}, {"measurement": "Trochanter BMD, Change 0-24 months", "setting": "[2]", "result": "0.027 ± 0.030", "unit": "g/cm^2"}, {"measurement": "Ward's Triangle BMD, % Change 0-24 months", "setting": "[2]", "result": "5.1 ± 10.1", "unit": "%"}, {"measurement": "Ward's Triangle BMD, Change 0-24 months", "setting": "[2]", "result": "0.028 ± 0.060", "unit": "g/cm^2"}, {"measurement": "Femoral Neck BMD", "setting": "[2]; 24 Months of treatment", "result": "0.828 ± 0.145", "unit": "g/cm^2"}, {"measurement": "Intertrochanteric BMD", "setting": "[2]; 24 Months of treatment", "result": "1.206 ± 0.205", "unit": "g/cm^2"}, {"measurement": "Spine BMD", "setting": "[2]; 24 Months of treatment", "result": "1.000 ± 0.219", "unit": "g/cm^2"}, {"measurement": "Total Hip BMD", "setting": "[2]; 24 Months of treatment", "result": "0.994 ± 0.162", "unit": "g/cm^2"}, {"measurement": "Ward's Triangle BMD", "setting": "[2]; 24 Months of treatment", "result": "0.616 ± 0.172", "unit": "g/cm^2"}, {"measurement": "Spine BMD, % Change 0-24 months", "setting": "[2]; listed as testosterone", "result": 7.4, "unit": "%"}, {"measurement": "Bone Volume Fraction, % Change 0-24 months", "setting": "[3]; distal tibia", "result": "5.0 ± 4.2", "unit": "%"}, {"measurement": "Bone Volume Fraction, Change 0-24 months", "setting": "[3]; distal tibia", "result": "0.005 ± 0.004"}, {"measurement": "Trabecular Thickness, % Change 0-24 months", "setting": "[3]; distal tibia", "result": "1.5 ± 0.5", "unit": "%"}, {"measurement": "Trabecular Thickness, Change 0-24 months", "setting": "[3]; distal tibia", "result": "1.7 ± 0.6", "unit": "μ"}, {"measurement": "Bone Volume Fraction", "setting": "[3]; [7]", "result": "0.103 ± 0.011"}, {"measurement": "Trabecular Thickness", "setting": "[3]; [7]", "result": "120.5 ± 3.8", "unit": "μ"}, {"measurement": "Bone Volume Fraction, % Change 0-24 months", "setting": "[3]; distal tibia, listed as testosterone", "result": 5, "unit": "%"}, {"measurement": "increase of trabecular thickness during treatment", "setting": "[3]; starting at 6 months", "result": "~2", "unit": "%"}, {"measurement": "concentration at 3 months", "setting": "[4]; male, human, serum, topical, AndroGel 5-10 g/day, month 3", "result": "6.56 ng/mL and 22.8 nM"}, {"measurement": "serum testosterone concentration (in words)", "setting": "[4]; throughout the 24 months of treatment", "result": "remained normal"}, {"measurement": "bound to protein in the blood", "setting": "[5]; circulating testosterone", "result": 98, "unit": "%"}, {"measurement": "share bound weakly to albumin", "setting": "[5]; in men", "result": 60, "unit": "%"}, {"measurement": "share of binding to sex hormone binding globulin (SHBG)", "setting": "[5]; in men", "result": "approximately 40%"}]}
{"smiles": "CC[C@H](C)[C@H](NC(=O)[C@H](CCC(=O)O)NC(=O)[C@H](CO)NC(=O)[C@@H](NC(=O)[C@@H](N)CO)C(C)C)C(=O)N[C@@H](CCC(N)=O)C(=O)N[C@@H](CC(C)C)C(=O)N[C@@H](CCSC)C(=O)N[C@@H](Cc1cnc[nH]1)C(=O)N[C@@H](CC(N)=O)C(=O)N[C@@H](CC(C)C)C(=O)NCC(=O)N[C@@H](CCCCN)C(=O)N[C@@H](Cc1cnc[nH]1)C(=O)N[C@@H](CC(C)C)C(=O)N[C@@H](CC(N)=O)C(=O)N[C@@H](CO)C(=O)N[C@@H](CCSC)C(=O)N[C@@H](CCC(=O)O)C(=O)N[C@@H](CCCN=C(N)N)C(=O)N[C@H](C(=O)N[C@@H](CCC(=O)O)C(=O)N[C@@H](Cc1c[nH]c2ccccc12)C(=O)N[C@@H](CC(C)C)C(=O)N[C@@H](CCCN=C(N)N)C(=O)N[C@@H](CCCCN)C(=O)N[C@@H](CCCCN)C(=O)N[C@@H](CC(C)C)C(=O)N[C@@H](CCC(N)=O)C(=O)N[C@@H](CC(=O)O)C(=O)N[C@H](C(=O)N[C@@H](Cc1cnc[nH]1)C(=O)N[C@@H](CC(N)=O)C(=O)N[C@@H](Cc1ccccc1)C(=O)O)C(C)C)C(C)C", "note": "[rhPTH]", "values": [{"measurement": "trabecular connectivity, in words", "setting": "[6]", "result": "significantly increased their trabecular connectivity"}]}
